In brackets after ≈: the same amount, converted by molar mass.
Tests used:
H. influenzae 30063 = experiment: MIC by agar dilution against H. influenzae 30063; assay type: cell-based; conditions: Haemophilus influenzae, in vitro
Description: (§1) The oxazolidinone antibacterial agents of this invention have useful activity against a variety of organisms. The in vitro activity of compounds of this invention can be assessed by standard testing procedures such as the determination of minimum inhibitory concentration (MIC) by agar dilution as described in "Approved Standard. Methods for Dilution Antimicrobial Susceptibility Tests for Bacteria That Grow Aerobically", 3rd. ed., published 1993 by the National Committee for Clinical Laboratory Standards, Villanova, Pa., USA.

S. aureus UC 9213 = experiment: MIC by agar dilution against S. aureus UC 9213; assay type: cell-based; conditions: Staphylococcus aureus, UC9213, in vitro
Description: as §1

human MAO A = target: T1, human MAO A (Homo sapiens, UniProt P21397); experiment: Continuous spectrophotometric assay of inhibitory activity to human MAO-A; assay type: biochemical; conditions: pH 7.3, 37° C., 80 μM substrate, 1% DMSO, 15 minutes pre-incubation; read-out: Ki, inhibition of human MAO A
T1 construct: Human placental MAO A is solubilized and purified as described; from tissue; host or cells: human placenta (enzyme supplied by Dr. Neal Castagnoli Jr's lab, Virginia Technical University)
T1 sequence (P21397 1-527): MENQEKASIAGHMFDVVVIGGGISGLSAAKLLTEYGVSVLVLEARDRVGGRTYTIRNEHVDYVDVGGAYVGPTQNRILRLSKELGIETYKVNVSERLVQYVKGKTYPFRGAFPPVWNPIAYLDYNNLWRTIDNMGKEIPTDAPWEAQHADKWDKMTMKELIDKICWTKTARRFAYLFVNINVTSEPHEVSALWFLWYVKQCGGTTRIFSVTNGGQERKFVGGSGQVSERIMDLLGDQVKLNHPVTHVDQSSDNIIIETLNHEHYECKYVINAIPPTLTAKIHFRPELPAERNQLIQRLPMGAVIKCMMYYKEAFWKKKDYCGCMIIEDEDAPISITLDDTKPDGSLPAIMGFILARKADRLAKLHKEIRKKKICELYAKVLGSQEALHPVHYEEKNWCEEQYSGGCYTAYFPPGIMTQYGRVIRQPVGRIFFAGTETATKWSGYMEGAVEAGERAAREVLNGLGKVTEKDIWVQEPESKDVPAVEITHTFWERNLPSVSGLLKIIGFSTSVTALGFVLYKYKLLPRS
Description: The continuous spectrophotometric assay for measuring MAO activity is based on a colored oxidation product of the chromogenic substrate, 1-methyl-4-(1-methyl-2-pyrryl)-1,2,3,6-tetrahydropyridine, by MAO enzymes. The product is stable for many days at room temperature. The conversion of the substrate to the oxidation product is followed continuously from the moment of mixing of the MAO enzyme with the substrate and the initial reaction rate curve is directly observed. The bright yellow-green oxidation product has a peak absorption at 421 nm with a broad band that can be measured between 390 nm to 440 nm. Thus, the assay can be performed on the least sophisticated spectrophotometric equipment.
Human placental MAO A is solubilized and purified as described in N. Castagnoli Jr. et al., J. Med Chem. Vol. 39, pp. 4756-4761 (1996) and J. I. Salach et al., J. of Bio. Chem., Vol. 260, p. 13199 (1985). The human placental MAO A is obtained as a concentrated solution (5 nmols per ml). Bovine liver MAO B is purified as described N. Castagnoli Jr. et al., J. Med Chem., Vol. 39, pp. 4756-4761 (1996) and J. I. Salach et al., Methods Enzymol., Vol. 142, pp […] (1987). The bovine liver MAO B is obtained as a concentrated solution (8 nmols per ml). Working stocks of the enzyme solutions are made by 1/50 dilution of initial stocks into 50 mM sodium phosphate and optionally 10% glycerol. The solutions are kept on ice until final dilution into the assay. Alternatively, the frozen MAO enzymes may be diluted 800-3200 fold into the 50 mM sodium phosphate buffer immediately before use. This method is useful when screening a large number of oxazolidinones.
Oxazolidinones are prepared in DMSO at a concentration of 50 mM. Serial dilutions of the 50 mM stock solution are made in DMSO to form additional stock solutions ranging from […] to 0.3125 mM. The stock solutions are then frozen until use. The stocks are diluted 1/100 into the final enzyme assay volume at the time of assay.
Typically, the enzyme, along with an oxazolidinone inhibitor, are preincubated for approximately 15 minutes in the sodium phosphate buffer prior to assay. The reactions are started by addition of the substrate. Initial velocities are generally collected over an interval of one to sixty minutes.
The assay functions well in the spectrophotometer cuvette for evaluating single oxazolidinone's MAO inhibitory activity. The assay has also been successfully adapted to operate in high throughput microtiterplate format (i.e., 96, 384 and 1536 well plate readers). Hundreds of assays can be run simultaneously. Assay volumes are 250 μL and the wells have an effective path length of 0.75 cm. Generally, the final composition of the assay in the microtiterplate comprises […] sodium phosphate (pH=7.3), oxazolidinone having concentration ranging up to 500 μM, 1% DMSO, 80 μM substrate (MAO A) or 200 μM substrate (MAO B), and sufficient enzyme to produce an absorbance change from 0.0005 to 0.050 per minute at 421 nm. The reaction is run at 37° C., and rapid temperature equilibration of the assay solution is achieved by preincubating the plate and stock solutions at about 37° C. The reaction is followed by recording the increase in absorbance at 421 nm. The oxidation product has an extinction coefficient of 25,000 M^-1 cm^-1 at 420. See: N. Castagnoli Jr. et al., J. Med Chem., Vol. 39, pp. 4756-4761 (1996). Initial rates are determined by linear regression of the progress curves over an absorbance change of 0.06-0.12 at 421 nm. This range represents a substrate consumption of approximately 5% in the assay. The percentage inhibition of an oxazolidinone is determined from the following equation
In the above equation, the term "negative control" refers to a complete assay with 1% of DMSO but no MAO enzyme. The term "positive control" refers to a complete assay with 1% of DMSO but no inhibitor. The term "rate (I)" refers to the reaction rate under a complete assay conditions. […]

SMILES | MIC (H. influenzae 30063) [µg/mL] | MIC (S. aureus UC 9213) [µg/mL] | Ki (human MAO A) [µM]
CC(=O)NC[C@H]1CN(c2ccc([C@H]3CC[S@@+]([O-])CC3)c(F)c2)C(=O)O1 [Example 1, (-)-N-[[(5S)-3-[3-fluoro-4-(cis-tetrahydro-1-oxido-2H-thiopyran-4-yl)phenyl]-2-oxo-5-oxazolidinyl]methyl]acetamide] | 8 (≈ 21.7 µM) | 4 (≈ 10.9 µM) | 648
CCC(=O)NC[C@H]1CN(c2ccc([C@H]3CC[S@@+]([O-])CC3)c(F)c2)C(=O)O1 [Example 2, (-)-N-[[(5S)-3-[3-fluoro-4-(cis-tetrahydro-1-oxido-2H-thiopyran-4-yl)phenyl]-2-oxo-5-oxazolidinyl]methyl]propanamide] | 16 (≈ 41.8 µM) | 8 (≈ 20.9 µM) | > 3000
O=C(NC[C@H]1CN(c2ccc([C@H]3CC[S@@+]([O-])CC3)c(F)c2)C(=O)O1)C1CC1 [Example 3, (-)-N-[[(5S)-3-[3-fluoro-4-(cis-tetrahydro-1-oxido-2H-thiopyran-4-yl)phenyl]-2-oxo-5-oxazolidinyl]methyl]cyclopropanecarboxamide] | 16 (≈ 40.6 µM) | 8 (≈ 20.3 µM) | 734
O=C(NC[C@H]1CN(c2ccc([C@H]3CC[S@@+]([O-])CC3)c(F)c2)C(=O)O1)C(Cl)Cl [Example 4, (-)-2,2-Dichloro-N-[[(5S)-3-[3-fluoro-4-(cis-tetrahydro-1-oxido-2H-thiopyran-4-yl)phenyl]-2-oxo-5-oxazolidinyl]methyl]acetamide] | 8 (≈ 18.3 µM) | 2 (≈ 4.57 µM) | 2570
CCC(=O)NC[C@H]1CN(c2ccc(C3CCS(=O)(=O)CC3)c(F)c2)C(=O)O1 [Example 5, (-)-N-[[(5S)-3-[3-fluoro-4-(tetrahydro-1,1-dioxido-2H-thiopyran-4-yl)phenyl]-2-oxo-5-oxazolidinyl]methyl]propanamide] | 8 (≈ 20.1 µM) | 4 (≈ 10 µM) | 3000
O=C(NC[C@H]1CN(c2ccc(C3CCS(=O)(=O)CC3)c(F)c2)C(=O)O1)C(Cl)Cl [Example 6, (-)-2,2-dichloro-N-[[(5S)-3-[3-fluoro-4-(tetrahydro-1,1-dioxido-2H-thiopyran-4-yl)phenyl]-2-oxo-5-oxazolidinyl]methyl]acetamide] | 2 (≈ 4.41 µM) | 2 (≈ 4.41 µM) | > 3000
CCC(=O)NC[C@H]1CN(c2ccc([C@H]3CC[S@+]([O-])CC3)c(F)c2)C(=O)O1 [Example 7, (-)-N-[[(5S)-3-[3-fluoro-4-(trans-tetrahydro-1-oxido-2H-thiopyran-4-yl)phenyl]-2-oxo-5-oxazolidinyl]methyl]propanamide] | 4 (≈ 10.5 µM) | 4 (≈ 10.5 µM) | 905
O=C(NC[C@H]1CN(c2ccc([C@H]3CC[S@+]([O-])CC3)c(F)c2)C(=O)O1)C1CC1 [Example 8, (-)-N-[[(5S)-3-[3-fluoro-4-(trans-tetrahydro-1-oxido-2H-thiopyran-4-yl)phenyl]-2-oxo-5-oxazolidinyl]methyl]cyclopropanecarboxamide] | 16 (≈ 40.6 µM) | 8 (≈ 20.3 µM) | > 3000
O=C(NC[C@H]1CN(c2ccc([C@H]3CC[S@+]([O-])CC3)c(F)c2)C(=O)O1)C(Cl)Cl [Example 9, (-)-2,2-dichloro-N-[[(5S)-3-[3-fluoro-4-(trans-tetrahydro-1-oxido-2H-thiopyran-4-yl)phenyl]-2-oxo-5-oxazolidinyl]methyl]acetamide] | 2 (≈ 4.57 µM) | 1 (≈ 2.29 µM) | 396

Source: patent US6083967A, “S-oxide and S,S-dioxide tetrahydrothiopyran phenyloxazolidinones” (Pharmacia & Upjohn Company, priority 1998, dated 2000)
